Data: publication PMC12624955, “Exploring diarylheptanoid derivatives to target LIMK1 as potential agents against colorectal cancer” (Journal of Enzyme Inhibition and Medicinal Chemistry, 2025)

Key:
Format in all cases: biochemical
MKNK1 (MNK1) = target: T1, MKNK1 (MNK1) (Homo sapiens, UniProt Q9BUB5); assay: SelectScreen kinase panel, Z′-LYTE kinase assay; details: read-out: Inhibition percentage at 1 μM
T1 construct: purchased Thermo Fisher Scientific SelectScreen
Description: (§1) Kinase panel screening was carried out using the SelectScreen Kinase Assay (Thermo Fisher Scientific, Waltham, MA, USA). Three complementary assay formats were applied: the Z′-LYTE kinase assay, LanthaScreen Eu kinase binding assay, and Adapta Universal kinase assay. The kinases selected for this study and the corresponding assay formats are summarised in Supplementary Table S1.
(§2) The Z′-LYTE Kinase Assay (Thermo Fisher Scientific, Waltham, MA, USA) was used to evaluate selected kinases’ activity, according to the manufacturer’s instructions (https://www.thermofisher.com/tw/zt/home/industrial/pharma-biopharma/drug-discovery-development/target-and-lead-identification-and-validation/kinasebiology/kinase-activity-assays/z-lyte/z-lyte-reactivity-table.html). This endpoint assay quantifies kinase activity by detecting peptide substrate phosphorylation. Briefly, a 2× mixture of selected kinase and relevant substrate was prepared in kinase buffer (0.01% polyoxyethylene lauryl ether (BRIJ-35), 50 mM 4-(2-hydroxyethyl)-1-piperazineethanesulfonic acid (HEPES), pH 7.5, 1 mM ethylene glycol-bis(β-aminoethyl ether)-N,N,N′,N′-tetraacetic acid (EGTA), and 10 mM MgCl2). After 1 h incubation at room temperature, 5 μl of 1:128 diluted development reagent solution was added, followed by an additional 1 h incubation. Fluorescence was recorded using a multimode plate reader.

LCK = target: T2, LCK (Homo sapiens, UniProt P06239); assay: SelectScreen kinase panel, Z′-LYTE kinase assay; details: read-out: Inhibition percentage at 1 μM
T2 construct: purchased Thermo Fisher Scientific SelectScreen
Description: as §1, §2

PLK2 = target: T3, PLK2 (Homo sapiens, UniProt Q9NYY3); assay: SelectScreen kinase panel, Z′-LYTE kinase assay; details: read-out: Inhibition percentage at 1 μM
T3 construct: purchased Thermo Fisher Scientific SelectScreen
Description: as §1, §2

ERBB4 (HER4) = target: T4, ERBB4 (HER4) (Homo sapiens, UniProt Q15303); assay: SelectScreen kinase panel, Z′-LYTE kinase assay; details: read-out: Inhibition percentage at 1 μM
T4 construct: purchased Thermo Fisher Scientific SelectScreen
Description: as §1, §2

CAMK2B (CaMKII beta) = target: T5, CAMK2B (CaMKII beta) (Homo sapiens, UniProt Q13554); assay: SelectScreen kinase panel, Z′-LYTE kinase assay; details: read-out: Inhibition percentage at 1 μM
T5 construct: purchased Thermo Fisher Scientific SelectScreen
Description: as §1, §2

CDK2/cyclin A = target: T6, CDK2/cyclin A (Homo sapiens, UniProt P24941); assay: SelectScreen kinase panel, Z′-LYTE kinase assay; details: read-out: Inhibition percentage at 1 μM
T6 construct: purchased Thermo Fisher Scientific SelectScreen
Description: as §1, §2

MINK1 = target: T7, MINK1 (Homo sapiens, UniProt Q8N4C8); assay: SelectScreen kinase panel, Z′-LYTE kinase assay; details: read-out: Inhibition percentage at 1 μM
T7 construct: purchased Thermo Fisher Scientific SelectScreen
Description: as §1, §2

NTRK1 (TRKA) = target: T8, NTRK1 (TRKA) (Homo sapiens, UniProt P04629); assay: SelectScreen kinase panel, Z′-LYTE kinase assay; details: read-out: Inhibition percentage at 1 μM
T8 construct: purchased Thermo Fisher Scientific SelectScreen
Description: as §1, §2

FGFR1 = target: T9, FGFR1 (Homo sapiens, UniProt P11362); assay: SelectScreen kinase panel, Z′-LYTE kinase assay; details: read-out: Inhibition percentage at 1 μM
T9 construct: purchased Thermo Fisher Scientific SelectScreen
Description: as §1, §2

AKT1 (PKB alpha) = target: T10, AKT1 (PKB alpha) (Homo sapiens, UniProt P31749); assay: SelectScreen kinase panel, Z′-LYTE kinase assay; details: read-out: Inhibition percentage at 1 μM
T10 construct: purchased Thermo Fisher Scientific SelectScreen
Description: as §1, §2

MAPK3 (ERK1) = target: T11, MAPK3 (ERK1) (Homo sapiens, UniProt P27361); assay: SelectScreen kinase panel, Z′-LYTE kinase assay; details: read-out: Inhibition percentage at 1 μM
T11 construct: purchased Thermo Fisher Scientific SelectScreen
Description: as §1, §2

MARK3 = target: T12, MARK3 (Homo sapiens, UniProt P27448); assay: SelectScreen kinase panel, Z′-LYTE kinase assay; details: read-out: Inhibition percentage at 1 μM
T12 construct: purchased Thermo Fisher Scientific SelectScreen
Description: as §1, §2

NEK1 = target: T13, NEK1 (Homo sapiens, UniProt Q96PY6); assay: SelectScreen kinase panel, Z′-LYTE kinase assay; details: read-out: Inhibition percentage at 1 μM
T13 construct: purchased Thermo Fisher Scientific SelectScreen
Description: as §1, §2

IKBKB (IKK beta) = target: T14, IKBKB (IKK beta) (Homo sapiens, UniProt O14920); assay: SelectScreen kinase panel, Z′-LYTE kinase assay; details: read-out: Inhibition percentage at 1 μM
T14 construct: purchased Thermo Fisher Scientific SelectScreen
Description: as §1, §2

PIM1 = target: T15, PIM1 (Homo sapiens, UniProt P11309); assay: SelectScreen kinase panel, Z′-LYTE kinase assay; details: read-out: Inhibition percentage at 1 μM
T15 construct: purchased Thermo Fisher Scientific SelectScreen
Description: as §1, §2

CSNK1D (CK1 delta) = target: T16, CSNK1D (CK1 delta) (Homo sapiens, UniProt P48730); assay: SelectScreen kinase panel, Z′-LYTE kinase assay; details: read-out: Inhibition percentage at 1 μM
T16 construct: purchased Thermo Fisher Scientific SelectScreen
Description: as §1, §2

MAP3K9 (MLK1) = target: T17, MAP3K9 (MLK1) (Homo sapiens, UniProt P80192); assay: SelectScreen kinase panel, Z′-LYTE kinase assay; details: read-out: Inhibition percentage at 1 μM
T17 construct: purchased Thermo Fisher Scientific SelectScreen
Description: as §1, §2

PRKACA (PKA) = target: T18, PRKACA (PKA) (Homo sapiens, UniProt P17612); assay: SelectScreen kinase panel, Z′-LYTE kinase assay; details: read-out: Inhibition percentage at 1 μM
T18 construct: purchased Thermo Fisher Scientific SelectScreen
Description: as §1, §2

DYRK1B = target: T19, DYRK1B (Homo sapiens, UniProt Q9Y463); assay: SelectScreen kinase panel, Z′-LYTE kinase assay; details: read-out: Inhibition percentage at 1 μM
T19 construct: purchased Thermo Fisher Scientific SelectScreen
Description: as §1, §2

RPS6KA3 (RSK2) = target: T20, RPS6KA3 (RSK2) (Homo sapiens, UniProt P51812); assay: SelectScreen kinase panel, Z′-LYTE kinase assay; details: read-out: Inhibition percentage at 1 μM
T20 construct: purchased Thermo Fisher Scientific SelectScreen
Description: as §1, §2

SRC = target: T21, SRC (Homo sapiens, UniProt P12931); assay: SelectScreen kinase panel, Z′-LYTE kinase assay; details: read-out: Inhibition percentage at 1 μM
T21 construct: purchased Thermo Fisher Scientific SelectScreen
Description: as §1, §2

DCAMKL1 (DCLK1) = target: T22, DCAMKL1 (DCLK1) (Homo sapiens, UniProt O15075); assay: SelectScreen kinase panel, Z′-LYTE kinase assay; details: read-out: Inhibition percentage at 1 μM
T22 construct: purchased Thermo Fisher Scientific SelectScreen
Description: as §1, §2

STK3 (MST2) = target: T23, STK3 (MST2) (Homo sapiens, UniProt Q13188); assay: SelectScreen kinase panel, Z′-LYTE kinase assay; details: read-out: Inhibition percentage at 1 μM
T23 construct: purchased Thermo Fisher Scientific SelectScreen
Description: as §1, §2

HIPK1 (Myak) = target: T24, HIPK1 (Myak) (Homo sapiens, UniProt Q86Z02); assay: SelectScreen kinase panel, Z′-LYTE kinase assay; details: read-out: Inhibition percentage at 1 μM
T24 construct: purchased Thermo Fisher Scientific SelectScreen
Description: as §1, §2

AURKA (Aurora A) = target: T25, AURKA (Aurora A) (Homo sapiens, UniProt O14965); assay: SelectScreen kinase panel, Z′-LYTE kinase assay; details: read-out: Inhibition percentage at 1 μM
T25 construct: purchased Thermo Fisher Scientific SelectScreen
Description: as §1, §2

CSNK1G1 (CK1 gamma 1) = target: T26, CSNK1G1 (CK1 gamma 1) (Homo sapiens, UniProt Q9HCP0); assay: SelectScreen kinase panel, Z′-LYTE kinase assay; details: read-out: Inhibition percentage at 1 μM
T26 construct: purchased Thermo Fisher Scientific SelectScreen
Description: as §1, §2

PRKCA (PKC alpha) = target: T27, PRKCA (PKC alpha) (Homo sapiens, UniProt P17252); assay: SelectScreen kinase panel, Z′-LYTE kinase assay; details: read-out: Inhibition percentage at 1 μM
T27 construct: purchased Thermo Fisher Scientific SelectScreen
Description: as §1, §2

PAK2 (PAK65) = target: T28, PAK2 (PAK65) (Homo sapiens, UniProt Q13177); assay: SelectScreen kinase panel, Z′-LYTE kinase assay; details: read-out: Inhibition percentage at 1 μM
T28 construct: purchased Thermo Fisher Scientific SelectScreen
Description: as §1, §2

BTK = target: T29, BTK (Homo sapiens, UniProt Q06187); assay: SelectScreen kinase panel, Z′-LYTE kinase assay; details: read-out: Inhibition percentage at 1 μM
T29 construct: purchased Thermo Fisher Scientific SelectScreen
Description: as §1, §2

IRAK4 = target: T30, IRAK4 (Homo sapiens, UniProt Q9NWZ3); assay: SelectScreen kinase panel, Z′-LYTE kinase assay; details: read-out: Inhibition percentage at 1 μM
T30 construct: purchased Thermo Fisher Scientific SelectScreen
Description: as §1, §2

ROCK1 = target: T31, ROCK1 (Homo sapiens, UniProt Q13464); assay: SelectScreen kinase panel, Z′-LYTE kinase assay; details: read-out: Inhibition percentage at 1 μM
T31 construct: purchased Thermo Fisher Scientific SelectScreen
Description: as §1, §2

[1] = system: panel of 40 kinases from various families; assay: Kinase panel screening (SelectScreen), whole panel; details: all 40 kinases; 1 μM
Description: as §1
as §2, with “reader. […]” for “reader.”

T17 sequence (P80192 whole entry): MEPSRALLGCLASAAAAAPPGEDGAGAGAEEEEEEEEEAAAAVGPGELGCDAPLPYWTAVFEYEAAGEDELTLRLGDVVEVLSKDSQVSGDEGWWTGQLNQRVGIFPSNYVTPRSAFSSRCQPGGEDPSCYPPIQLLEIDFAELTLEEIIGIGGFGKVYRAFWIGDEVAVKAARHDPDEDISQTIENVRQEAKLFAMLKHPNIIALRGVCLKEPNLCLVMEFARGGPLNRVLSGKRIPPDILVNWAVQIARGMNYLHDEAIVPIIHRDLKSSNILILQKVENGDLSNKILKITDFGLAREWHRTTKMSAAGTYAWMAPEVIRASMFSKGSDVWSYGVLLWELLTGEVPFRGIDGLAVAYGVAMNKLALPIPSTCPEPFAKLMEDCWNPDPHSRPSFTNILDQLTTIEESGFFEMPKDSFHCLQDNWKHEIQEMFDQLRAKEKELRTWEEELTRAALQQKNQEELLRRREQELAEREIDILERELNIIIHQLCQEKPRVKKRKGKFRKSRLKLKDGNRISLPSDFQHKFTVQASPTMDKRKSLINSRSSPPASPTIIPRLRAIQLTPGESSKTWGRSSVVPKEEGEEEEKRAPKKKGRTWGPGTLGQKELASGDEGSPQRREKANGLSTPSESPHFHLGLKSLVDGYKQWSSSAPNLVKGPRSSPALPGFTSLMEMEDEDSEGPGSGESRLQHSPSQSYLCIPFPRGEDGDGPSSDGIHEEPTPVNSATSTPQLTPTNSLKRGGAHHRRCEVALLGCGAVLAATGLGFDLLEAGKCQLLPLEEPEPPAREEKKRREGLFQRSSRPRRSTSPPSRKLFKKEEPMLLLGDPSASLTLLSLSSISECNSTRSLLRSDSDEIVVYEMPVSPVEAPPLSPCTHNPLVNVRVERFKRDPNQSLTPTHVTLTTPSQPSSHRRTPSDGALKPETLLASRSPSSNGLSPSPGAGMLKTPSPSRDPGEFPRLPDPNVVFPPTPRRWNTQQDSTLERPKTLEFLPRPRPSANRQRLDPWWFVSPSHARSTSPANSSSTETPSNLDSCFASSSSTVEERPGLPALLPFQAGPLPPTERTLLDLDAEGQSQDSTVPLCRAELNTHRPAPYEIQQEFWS
T3 sequence (Q9NYY3 whole entry): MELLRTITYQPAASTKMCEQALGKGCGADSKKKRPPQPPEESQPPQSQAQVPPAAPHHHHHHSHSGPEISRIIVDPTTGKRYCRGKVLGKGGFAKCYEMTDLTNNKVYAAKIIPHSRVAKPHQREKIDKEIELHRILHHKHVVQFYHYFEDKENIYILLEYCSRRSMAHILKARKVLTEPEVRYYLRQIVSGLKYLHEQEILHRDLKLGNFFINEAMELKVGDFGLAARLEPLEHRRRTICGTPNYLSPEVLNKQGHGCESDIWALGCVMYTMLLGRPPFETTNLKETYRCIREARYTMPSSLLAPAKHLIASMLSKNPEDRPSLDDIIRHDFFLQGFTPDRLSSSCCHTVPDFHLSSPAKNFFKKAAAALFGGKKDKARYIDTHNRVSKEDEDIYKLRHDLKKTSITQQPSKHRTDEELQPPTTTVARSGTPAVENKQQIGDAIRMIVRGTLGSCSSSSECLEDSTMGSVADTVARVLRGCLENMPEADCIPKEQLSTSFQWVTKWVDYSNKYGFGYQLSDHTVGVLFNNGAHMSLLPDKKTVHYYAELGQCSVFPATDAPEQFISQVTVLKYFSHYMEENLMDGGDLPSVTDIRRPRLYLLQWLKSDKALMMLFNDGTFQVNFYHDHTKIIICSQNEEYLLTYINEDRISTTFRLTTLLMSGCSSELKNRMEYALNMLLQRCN
T19 sequence (Q9Y463 whole entry): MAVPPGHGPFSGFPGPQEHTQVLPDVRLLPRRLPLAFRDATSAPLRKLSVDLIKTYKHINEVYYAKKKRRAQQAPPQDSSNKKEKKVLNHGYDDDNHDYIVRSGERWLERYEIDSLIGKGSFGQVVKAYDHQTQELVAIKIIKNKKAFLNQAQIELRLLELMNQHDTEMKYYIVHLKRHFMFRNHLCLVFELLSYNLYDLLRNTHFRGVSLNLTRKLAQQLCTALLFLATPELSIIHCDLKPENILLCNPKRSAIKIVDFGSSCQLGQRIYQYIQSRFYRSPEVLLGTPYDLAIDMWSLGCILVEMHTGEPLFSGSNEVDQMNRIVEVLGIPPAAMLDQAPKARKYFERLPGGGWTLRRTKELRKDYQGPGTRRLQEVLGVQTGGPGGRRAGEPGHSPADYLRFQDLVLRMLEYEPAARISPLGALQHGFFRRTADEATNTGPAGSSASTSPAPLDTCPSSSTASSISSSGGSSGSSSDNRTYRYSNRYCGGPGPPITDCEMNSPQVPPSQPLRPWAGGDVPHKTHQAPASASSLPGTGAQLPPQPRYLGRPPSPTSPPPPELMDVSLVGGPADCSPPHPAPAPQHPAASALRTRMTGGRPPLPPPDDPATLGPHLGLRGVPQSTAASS
T5 sequence (Q13554 whole entry): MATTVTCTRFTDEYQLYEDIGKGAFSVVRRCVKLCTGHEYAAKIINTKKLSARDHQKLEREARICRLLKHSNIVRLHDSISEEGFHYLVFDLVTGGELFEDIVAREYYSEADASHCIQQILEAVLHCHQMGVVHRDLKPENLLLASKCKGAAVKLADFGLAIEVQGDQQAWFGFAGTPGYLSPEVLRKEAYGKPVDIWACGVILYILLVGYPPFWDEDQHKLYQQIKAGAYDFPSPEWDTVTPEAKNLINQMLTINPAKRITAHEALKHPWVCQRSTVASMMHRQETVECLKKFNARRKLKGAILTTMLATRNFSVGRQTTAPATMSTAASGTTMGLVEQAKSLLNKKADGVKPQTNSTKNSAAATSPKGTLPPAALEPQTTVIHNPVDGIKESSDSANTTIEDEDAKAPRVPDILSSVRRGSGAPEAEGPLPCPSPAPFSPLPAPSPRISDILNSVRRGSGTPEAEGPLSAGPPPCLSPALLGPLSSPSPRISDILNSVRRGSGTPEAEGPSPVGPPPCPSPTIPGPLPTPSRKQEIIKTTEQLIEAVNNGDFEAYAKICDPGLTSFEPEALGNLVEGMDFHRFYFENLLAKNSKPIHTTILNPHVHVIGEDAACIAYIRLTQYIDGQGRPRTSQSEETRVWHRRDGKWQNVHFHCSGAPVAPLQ
T10 sequence (P31749 whole entry): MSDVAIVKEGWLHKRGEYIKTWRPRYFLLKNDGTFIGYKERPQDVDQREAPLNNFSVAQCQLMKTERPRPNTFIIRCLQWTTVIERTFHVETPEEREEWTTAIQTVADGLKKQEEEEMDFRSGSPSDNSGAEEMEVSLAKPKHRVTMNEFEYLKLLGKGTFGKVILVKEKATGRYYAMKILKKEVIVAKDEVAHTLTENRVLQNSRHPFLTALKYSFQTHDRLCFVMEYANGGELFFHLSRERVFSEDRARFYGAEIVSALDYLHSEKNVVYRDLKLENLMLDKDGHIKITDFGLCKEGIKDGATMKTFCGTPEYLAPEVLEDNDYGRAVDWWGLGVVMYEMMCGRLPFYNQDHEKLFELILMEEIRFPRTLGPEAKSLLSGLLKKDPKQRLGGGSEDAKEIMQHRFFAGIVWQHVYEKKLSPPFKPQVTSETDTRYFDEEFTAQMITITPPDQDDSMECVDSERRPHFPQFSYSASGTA
T29 sequence (Q06187 whole entry): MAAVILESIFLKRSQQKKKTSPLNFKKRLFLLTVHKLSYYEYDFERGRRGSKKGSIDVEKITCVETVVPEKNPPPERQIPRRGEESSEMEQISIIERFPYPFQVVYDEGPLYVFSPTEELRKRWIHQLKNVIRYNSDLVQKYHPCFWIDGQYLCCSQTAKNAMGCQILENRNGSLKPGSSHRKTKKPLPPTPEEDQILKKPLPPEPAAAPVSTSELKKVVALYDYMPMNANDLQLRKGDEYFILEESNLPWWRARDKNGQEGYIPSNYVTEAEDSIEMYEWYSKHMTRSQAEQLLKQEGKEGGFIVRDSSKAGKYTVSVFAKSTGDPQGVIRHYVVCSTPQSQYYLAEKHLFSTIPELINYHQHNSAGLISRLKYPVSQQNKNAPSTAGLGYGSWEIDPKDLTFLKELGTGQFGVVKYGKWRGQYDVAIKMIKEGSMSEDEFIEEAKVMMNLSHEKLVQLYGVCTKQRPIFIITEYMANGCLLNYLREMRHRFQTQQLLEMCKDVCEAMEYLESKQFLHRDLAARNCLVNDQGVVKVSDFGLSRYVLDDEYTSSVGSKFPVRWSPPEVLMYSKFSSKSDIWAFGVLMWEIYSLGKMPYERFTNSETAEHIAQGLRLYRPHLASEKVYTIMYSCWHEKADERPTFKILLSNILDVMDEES
T16 sequence (P48730 whole entry): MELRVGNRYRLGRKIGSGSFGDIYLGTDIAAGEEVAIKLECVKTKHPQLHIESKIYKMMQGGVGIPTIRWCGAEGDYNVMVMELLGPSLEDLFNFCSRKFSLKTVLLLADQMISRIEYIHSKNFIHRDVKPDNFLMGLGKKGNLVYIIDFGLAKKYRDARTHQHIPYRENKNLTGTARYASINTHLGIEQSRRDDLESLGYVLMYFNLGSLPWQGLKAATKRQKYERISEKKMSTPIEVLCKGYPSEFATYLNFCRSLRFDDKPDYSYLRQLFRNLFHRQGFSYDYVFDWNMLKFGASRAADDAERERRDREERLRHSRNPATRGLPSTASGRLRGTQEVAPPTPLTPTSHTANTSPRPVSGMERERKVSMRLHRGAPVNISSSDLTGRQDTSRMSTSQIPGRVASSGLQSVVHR
T15 sequence (P11309 whole entry): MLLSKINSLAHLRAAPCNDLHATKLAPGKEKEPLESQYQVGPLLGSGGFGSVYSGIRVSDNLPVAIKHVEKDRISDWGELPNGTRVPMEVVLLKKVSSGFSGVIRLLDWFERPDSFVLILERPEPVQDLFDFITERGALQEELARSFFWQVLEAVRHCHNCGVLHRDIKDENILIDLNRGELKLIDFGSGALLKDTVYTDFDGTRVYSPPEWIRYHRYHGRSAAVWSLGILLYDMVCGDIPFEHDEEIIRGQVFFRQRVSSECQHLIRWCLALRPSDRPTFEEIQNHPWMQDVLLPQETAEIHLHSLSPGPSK

O=C(/C=C/c1ccc(O)c(O)c1)CCCCn1ccc2c(O)cccc21 [Compound 13a, (E)-1-(3,4-dihydroxyphenyl)-7-(4-hydroxy-1H-indol-1-yl)hept-1-en-3-one]
inhibition at 1 µM (MKNK1 (MNK1)): 8% | inhibition at 1 µM (LCK): -6% | inhibition at 1 µM (PLK2): 16% | inhibition at 1 µM (ERBB4 (HER4)): 15% | inhibition at 1 µM (CAMK2B (CaMKII beta)): 19% | inhibition at 1 µM (CDK2/cyclin A): 0% | inhibition at 1 µM (MINK1): 13% | inhibition at 1 µM (NTRK1 (TRKA)): -7% | inhibition at 1 µM (FGFR1): 3% | inhibition at 1 µM (AKT1 (PKB alpha)): 2% | inhibition at 1 µM (MAPK3 (ERK1)): 6% | inhibition at 1 µM (MARK3): 6% | inhibition at 1 µM (NEK1): -1% | inhibition at 1 µM (IKBKB (IKK beta)): 8% | inhibition at 1 µM (PIM1): 12% | inhibition at 1 µM (CSNK1D (CK1 delta)): 7% | inhibition at 1 µM (MAP3K9 (MLK1)): 2% | inhibition at 1 µM (PRKACA (PKA)): 5% | inhibition at 1 µM (DYRK1B): 4% | inhibition at 1 µM (RPS6KA3 (RSK2)): 8% | inhibition at 1 µM (SRC): 0% | inhibition at 1 µM (DCAMKL1 (DCLK1)): 1% | inhibition at 1 µM (STK3 (MST2)): 0% | inhibition at 1 µM (HIPK1 (Myak)): 2% | inhibition at 1 µM (AURKA (Aurora A)): 18% | inhibition at 1 µM (CSNK1G1 (CK1 gamma 1)): 4% | inhibition at 1 µM (PRKCA (PKC alpha)): 13% | inhibition at 1 µM (PAK2 (PAK65)): 4% | inhibition at 1 µM (BTK): 19% | inhibition at 1 µM (IRAK4): 4% | inhibition at 1 µM (ROCK1): 10% | inhibition percentages across the panel of 40 kinases [1]: below 50%
